Measurements reported in paper PMC9396645 (Frontiers in Chemistry, 2022).

Columns and labels:
[1] = tested on: C4-2 tumor bearing BALB/c nu/nu mice; assay: Small-animal PET imaging in C4-2 tumor bearing mice; format: in vivo, mouse; conditions: for mSUV Bladder / mSUV Heart / mSUV Kidneys / mSUV Liver / mSUV Muscle / mSUV Tumor: small-animal PET, C4-2 xenograft mouse
Source text: (§1) Athymic male nude mice (BALB/c nu/nu) were purchased from Charles River at 4‒5 weeks of age (19–23 g). The mice were kept under pathogen-free conditions for 1 week prior to the study. The mice had free access to water and food and were housed with a 12-h/12-h light/dark cycle. The xenografts required for positron emission tomography (PET) imaging and biodistribution studies were obtained by inoculation of 5 × 10^7 C4-2 cells in 50% Matrigel in Opti-MEM I (1 ×) medium. For this purpose, the mice were anesthetized with 2% sevoflurane, and inoculation was performed subcutaneously on the right trunk. When the size of the tumor was approximately 1 cm^3, the studies were performed.
For small-animal PET imaging, the different ^68Ga-labeled PSMA ligands (0.5 nmol, 20 MBq in approximately 100 µL 0.9% saline) were injected into C4-2 tumor bearing mice. The dynamic PET was recorded in a small animal PET scanner (Siemens Inveon D-PET). The standardized uptake values (SUVs) were obtained from conventional (non-dynamic) PET images. The formula for the SUV was SUV=activity in ROI (Bq/ml) × animal weight (g)/injected dose(Bq)
Manual delineation of the respective appropriate whole organ (heart, kidneys, bladder, tumor, with an approximate volume of 100–500 µL) yielded the volumes of interest (VOIs). For this purpose, whole organs or parts of the organ/tissue (liver and muscle) were used. The images were reconstructed based on the procedure: OSEM 3D/SP MAP with 16 subsets, two iterations, and an image x-y size: 256, image z size: 161. The data were not modified with a post-processing filter. Analysis of the images and time-activity curves (TACs) was conducted on the Inveon™ Acquisition Workplace (IAW) from Siemens IRW 4.1. […] […] The mean SUVs were plotted over time in order to compare the different radiotracers.

[2] = Determination of plasma half-life in athymic nude mice; format: in vivo, mouse; conditions: athymic nude mice (n = 3), i.v. 4–6 MBq, biexponential fit, weighted overall half-life
Protocol: The radioligands ^68Ga-CA027 and ^68Ga-CA028 (4–6 MBq) were injected into athymic nude mice (n = 3) via the lateral tail vein. Blood (25–50 μL) was collected 2, 5, 15, 30, 45, 60, 90, and 120 min post injection via either the tail or saphenous vein, and the activity of the blood samples was determined in a γ-counter. Both procedures furnished consistent and reproducible results. The percentage of the injected dose per gram of tissue (%ID/g) was calculated, and the resulting values were plotted as a function of time. A biexponential decay curve was used as a fit function, accounting for a short blood half-life (a-phase) during the initial phase directly after injection and a longer blood half-life during the terminal phase (b-phase). The data analysis program Prism 7™ was used to determine both half-lives, t1/2-a and t1/2-b, as well as their relative contribution (in %) to the overall half-life (t1/2). Subsequently, both half-lives were weighed according to their relative contribution to the overall blood half-life t1/2. At the time of tracer injection (t = 0), it was assumed that %ID/g = 50. The injected dose at t = 0 equals 100%, divided by the total mass of blood (approximately 2 g in the case of 6‒8 weeks old mice) gives %ID/g t=0 = 50.

[3] = tested on: C4-2 tumor bearing BALB/c nu/nu mice; assay: Biodistribution (organ distribution) in C4-2 tumor-bearing mice; format: in vivo, mouse
Source text: as §1
Based on the results of the PET imaging, ^68Ga-CA028 and ^68Ga-CA030, the most promising compounds, were chosen for biodistribution studies in C4-2 tumor-bearing mice. The labeled compound (0.05 nmol, 20 MBq) was administered to the mice via tail vein injection. Animals were sacrificed and organs were harvested at the following time points: 20 min, 1, 2, and 4 h p.i. The organs were dissected and weighed, the activity was measured with a γ-counter, and the % ID/g was calculated.

[4] = tested on: C4-2 cells; assay: Internalization efficiency / specific cell uptake in C4-2 cells; format: cell-based, human; conditions: ^68Ga-labeled compounds 30 nM, 45 min, 37°C, specificity by 2-PMPA 500 μM, mean ± SD (n = 3)
Protocol: The specific internalization ratio was determinated in 24-well plates. The plates were previously coated with 0.1% poly-L-lysine in PBS for 20 min and washed with PBS once. C4-2 cells (10^5 cells per analysis) were added to each well and equilibrated overnight. The cells were incubated for 45 min with 250 µL of a 30 nM solution of the ^68Ga-labeled compounds either in a water bath at 37°C or on ice. The PSMA-receptor-blocking agent 2-(phosphonomethyl)pentanedioic acid (2-PMPA; 500 μM; Axxora) was used to verify the specificity of the cellular uptake of the novel compounds. The cells were washed thrice (using 1 ml of ice-cold PBS), followed by an incubation with 0.5 ml of a glycine solution (50 mM in HCl at a pH of 2.8) for 5 min, washed once with 1 ml of ice-cold PBS, and finally lysed with 0.5 ml of 0.3 M NaOH. The lysate was collected, and the radioactivity was measured in a gamma-counter. Triplicate measurements were performed for all experiments.

O=C([O-])CN1CCN(CC(=O)[O-])CCN(Cc2ccc(C(=O)NCC3CCC(C(=O)NC(Cc4ccc5ccccc5c4)C(=O)NCCCCC(NC(=O)NC(CCC(=O)O)C(=O)O)C(=O)O)CC3)cc2)CCN(CC(=O)[O-])CC1.[68Ga+3] (centres unmarked) [^68Ga-CA028]
mSUV Bladder ([1]; 1 h): 6.50 | mSUV Heart ([1]; 1 h): 0.36 | mSUV Kidneys ([1]; 1 h): 0.39 | mSUV Liver ([1]; 1 h): 0.22 | mSUV Muscle ([1]; 1 h): 0.13 | mSUV Tumor ([1]; 1 h): 0.81 | mSUV Bladder ([1]; 2 h): 2.5 | mSUV Heart ([1]; 2 h): 0.13 | mSUV Kidneys ([1]; 2 h): 0.29 | mSUV Liver ([1]; 2 h): 0.09 | mSUV Muscle ([1]; 2 h): 0.05 | mSUV Tumor ([1]; 2 h): 0.78 | tumor-to-kidney ratio ([1]; mean SUV body weight from dynamic PET, 1 h p.i.): 2.08 | tumor-to-kidney ratio ([1]; mean SUV from PET, 2 h p.i.): 2.69 | plasma half-life t1/2 [2]: 5.2 min | tumor uptake ([3]; C4-2 tumor, 20 min after injection, 0.05 nmol, 20 MBq): 12.53 ± 0.45 %ID/g | tumor uptake with blockade ([3]; C4-2 tumor, 1 h p.i., co-injection of non-labeled PSMA-617 2 mg/kg): 1.31 ± 0.34 %ID/g | kidney uptake ([3]; kidneys, 1 h p.i., 0.05 nmol, 20 MBq): 15.58 ± 2.79 %ID/g | kidney uptake with blockade ([3]; kidneys, 1 h p.i., co-injection of non-labeled PSMA-617 2 mg/kg): 2.37 ± 0.52 %ID/g | Specific lysate (internalization) [4]: 41.2 ± 2.7 %IA/10^6 cells
